One compound from patent publication US10563272B2, “Compositions comprising Metarhizium fungi and use thereof as a pesticide” (Cotton Research and Development Corporation, priority 2015, dated 2020) can be followed below.

Data set [1] can be described thus: Foliar spray trial on Bollgard II cotton, Norwood 2010-11 (Example 7): yield. The class given is in vivo. The note with it: BC 667/DAT 511 0.50 L/ha, fipronil 62.5 mL/ha. Here is the method:
(§1) The study evaluated the efficacy of the following treatments against green mirids, green vegetable bugs and predatory insects: • 1. 500 mL/ha BC 667 spore in oil (1×10^7 spores/ml); • 2. 500 mL/ha DAT 511 spore in oil (1×10^7 spores/ml); • 3. 62.5 mL/ha Fipronil (conventional insecticide); and • 4. Unsprayed (control).
(§2) The treatment plots were arranged in a randomized complete block design with four replicates per treatment. Each replicated plot measured 0.5 ha. Foliar application of each treatment was made on 18 Jan. 2011 using a ground spray rig fitted with flat fan nozzles to achieve a droplet size of 80 250 μm. The treatment was applied in the mornings when temperature was between 20° C. and 28° C. The timing of treatment was based on an economic threshold of 0.5 green mirids per metre, the IPM guideline and recommendation by CottonLogic.
Cotton in each treated plot was harvested separately using a four-row picker (John Deere, Model 9965, USA) at the end of the season and the average lint yields (bales/acre) were compared between treatments.

Data set [2] deals with spiders. Briefly: Foliar spray trial on Bollgard II cotton, Norwood 2010-11 (Example 7): spiders. The class given is in vivo, Lycosa spp., Oxyopes spp., Salticidae spp., Araneus spp. Conditions: fipronil 62.5 mL/ha; for number of spiders per meter: 1st spray, BC 667/DAT 511 0.50 L/ha; for number of spiders per metre: 2nd spray, BC 667/DAT 511 0.5 L/ha. On the procedure:
The trial was conducted on commercial Bollgard II® cotton crops at Norwood near Moree, NSW from 5 Dec. 2010 to 19 Feb. 2011. The cotton was at the early squaring stage, when it was attractive to green mirids (Khan et al. 2004).
as §1, §2
Pre-treatment counts of green mirid adults and nymphs, predatory beetles, predatory bugs, predatory lacewings and spiders were made by visual inspection of whole cotton plants. Both adults and nymphs of the beneficial insects were counted. Plants were assessed in randomly selected one-metre lengths of row of each treatment replicate (i.e. four metres per treatment). In all, two spray applications of each treatment were made. The first spray was made on 18 Jan. 2011. Post-treatment counts of the first spray application were taken 3, 7 and 14 days after treatment (DAT) (first spray). A second spray application was done on 1 Feb. 2011 when green mirid adults plus nymphs reached the threshold of 0.5 per metre. Post-treatment counts of the second spray application were taken 3, 7, 14, 21 and 28 DAT. Data are expressed as numbers of individuals of that species counted per metre for each treatment.

The test system of a further data set is predatory lacewings. Briefly: Bollgard II cotton, Auscott-Togo 2012-13, Field 63 (Experiment 2): predatory lacewings. The class given is in vivo, Chrysopa spp., Micromus tasmaniae. Conditions: 62.5 mL/ha. Here is the method:
(§3) Two separate trials (Experiment 1 in Field 77; Experiment 2 in Field 63) were conducted in Bollgard II cotton crops on a commercial cotton farm at Auscott-Togo near Narrabri, New South Wales from 11 Feb. to 5 Mar. 2013 (Field 77) and 19 Feb. to 6 Mar. 2013 (Field 63). The cotton used for each of the trials was at the late squaring to pod setting and maturation stages which was fairly attractive to green mirids.
(§4) In both trials, the efficacy of the following treatments against green mirids and predatory insects was evaluated: • 1. 250 mL/ha DAT 511 spore in oil (1×10^7 spores/ml); • 2. 500 mL/ha DAT 511 spore in oil (1×10^7 spores/ml); • 3. 1 L/ha DAT 511 spore in oil (1×10^7 spores/ml); • 4. 62.5 mL/ha of fipronil; and • 5. Unsprayed (negative control).
(§5) The treatment plots were arranged in a randomized complete block design with six replicates per treatment. Each replicated plot measured 40 m wide (40 rows) and 90 m long.
(§6) Foliar application of each treatment was made on 28 Feb. (for both green mirids and beneficial insects) and 13 Mar. 2012 (for beneficial insects alone) using a ground spray rig fitted with flat fan nozzles to achieve a droplet size of 200 μm. The treatment was applied during the mornings when temperatures were between 20° C. and 28° C. The timing of treatment was based on the IPM Guidelines and recommendations by CottonLogic to use an economic threshold of 0.5 green mirids per metre (Deutscher and Wilson 1999; Khan et al. 2004).
(§7) Pre-treatment counts of green mirid adults and nymphs, predatory beetles, predatory bugs, predatory lacewings and spiders were made by visual inspection of whole cotton plants. Both adults and nymphs of beneficial insects were counted. Plants were assessed in randomly selected one-metre lengths of row of each replicate (i.e. 6 m per treatment). Post-treatment counts were made 3, 7, 14 and 21 days after treatment. Data are expressed as numbers of green mirid adults and nymphs counted per metre for each treatment.

Another data set concerns lacewings. In words: Rate trial on conventional cotton, Norwood 2012 (Example 10): lacewings. It is filed as in vivo, Chrysopa spp., Micromus tasmaniae. Conditions: P>0.05. On the procedure: This trial was conducted on commercial conventional cotton crops on a farm at Norwood (29° 28'S, 149° 50′E) near Moree, NSW, from 28 Feb. to 21 Mar. 2012. The cotton used for the trial was at the early squaring stage, when it was attractive to green mirids (Khan et al. 2004).
The efficacy of the following treatments against green mirids and predatory insects were evaluated: • 1. 250 mL/ha DAT 511 spore in oil (1×10^7 spores/ml); • 2. 500 mL/ha DAT 511 spore in oil (1×10^7 spores/ml); • 3. 1 L/ha DAT 511 spore in oil (1×10^7 spores/ml); • 4. 62.5 mL/ha of Fipronil; and • 5. Unsprayed (negative control).
as §5
Foliar application of each treatment was made on 28 Feb. (for both green mirids and beneficial insects) and 13 Mar. […]
Pre-treatment counts of adult and nymph green mirids, predatory beetles, predatory bugs, predatory lacewings and spiders were made by visual inspection of whole cotton plants. Both adults and nymphs of beneficial insects were counted. Plants were assessed in randomly selected one-metre lengths of row of each treatment replicate (i.e. 6 m per treatment). […] Data are expressed as numbers of green mirid adults and nymphs counted per metre per treatment.

Data set [3] deals with spiders. In words: Bollgard II cotton, Auscott-Togo 2012-13, Field 63 (Experiment 2): spiders. The class given is in vivo, Lycosa spp., Oxyopes spp., Salticidae spp., Araneus spp. Conditions: 62.5 mL/ha. Here is the method:
as §3, §4, §5, §6, §7

In the case of `N#Cc1nn(-c2c(Cl)cc(C(F)(F)F)cc2Cl)c(N)c1[S+]([O-])C(F)(F)F` (stereo not shown) [fipronil], the “Yields (bales/acre)” value in data set [1] is 4.67 ± 0.63 a bales/acre. The “number of spiders per meter” value is given as 3.33 ± 0.33 a per meter in the data set on spiders [2] (3 DAT), 4.67 ± 2.03 b per meter with spiders [2] (7 DAT), 9.67 ± 1.45 a per meter in the data set on spiders [2] (14 DAT) and 9.33 ± 1.20 a per meter with spiders [2] (pre-spray counts 18 Jan. 2011). The “number of spiders per metre” value in the data set with spiders [2] (3 DAT) is recorded as 12.00 ± 1.16a per metre; in the data set on spiders [2] (7 DAT) it was 10.33 ± 2.67a per metre; in the data set with spiders [2] (14 DAT) it was 16.00 ± 0.58b per metre; with spiders [2] (21 DAT) it was 21.00 ± 3.22a per metre; with spiders [2] (28 DAT) it was 21.00 ± 3.00a per metre; in the data set on spiders [2] (pre-spray counts 1 Feb. 2011), 9.67 ± 1.45a per metre. The “No. predatory lacewings per meter” value in the data set with predatory lacewings (3 DAT) worked out at 0.00 ± 0.00 a per meter; in the data set with predatory lacewings (7 DAT), 0.00 ± 0.00 a per meter; in the data set with predatory lacewings (14 DAT), 0.00 ± 0.00 a per meter; in the data set with predatory lacewings (21 DAT) it was 0.00 ± 0.00 a per meter; in the data set on predatory lacewings (pre-spray counts) it was 0.67 ± 0.33 a per meter. Besides, the “number of lacewings versus unsprayed (control) plots” value with lacewings is “No significant difference”. Besides, the “No. spiders per meter” value with spiders [3] (3 DAT) is given as 7.33 ± 1.45 a per meter; in the data set with spiders [3] (7 DAT) it was 4.33 ± 0.67a per meter; in the data set on spiders [3] (14 DAT), 1.33 ± 0.33a per meter; in the data set on spiders [3] (21 DAT), 3.67 ± 0.33 a per meter; in the data set on spiders [3] (pre-spray counts) it was 11.67 ± 1.61 a per meter.
